{
  "source": "patent US12180255B2",
  "about": "“Compositions and methods for derepressing RE1 silencing transcription factor target genes” (Alcamena Stem Cell Therapeutics, LLC, priority 2019, dated 2024)",
  "tested_on": "L5 DRGs",
  "experiment": "qRT-PCR mRNA expression in ex vivo cultured L5 DRGs",
  "assay_type": "cell-based, Sprague Dawley rat",
  "settings": "for Increase, BDNF mRNA / Increase, KV4.3 mRNA / Increase, KV7.2 mRNA / Increase, NGF mRNA / Increase, Nav1.8 mRNA / Increase, OPRM1 mRNA: DRG",
  "experimental": "FIG. 15. […] Error bars =standard error of the mean.\nL5 DRGs were dissected from adult male rats and plated in 12-well plates pre-coated with poly-D-Lysine (PDL) and laminin in a minimal volume of medium (250 ul Neurobasal™-A medium (GIBCO) supplemented with B27 (GIBCO), 50 ng/ml NGF (Sigma-Aldrich) and penicillin streptomycin) to allow attachment to the culture plate. One day after plating, DRGs were incubated with RPP (SEQ. ID NO: 12: 1 μM, 3 μM or 10 μM in culture medium, FIGS. 14 and 16; SEQ ID NOS: 13 and 14: 3 μM, FIG. 15) for 48 h. For RNA expression analysis, DRGs were lysed in 300 μl of Qiazol in a 1.5 ml tube containing Bullet Blender Pink Beads using a Bullet Blender Tissue Homogenizer (NextAdvance). Total RNA was extracted using RNeasy Midi Kit (Qiagen) according to manufacturer's instructions. Purified RNA was quantified with NanoDrop 2000 (ThermoFIsher), and reverse transcription was run using High Capacity cDNA Reverse Transcription Kit (Applied Biosystems) and 2 ng/ul RNA per reaction. For qRT-PCR, 5 ul of cDNA (corresponding to 10 ng of RNA) were mixed with to 10 ul SsoAdvanced™ Universal SYBR® Green Supermix (BioRad) and 1 ul of each primer (final primer concentration 500 nM each). Reactions were run in triplicates in a QuantStudio™ 7 Flex Real-Time PCR system (Applied Biosystems). Amplification data were analyzed using the comparative cycle threshold (ΔΔCt) method and β-actin as calibrator. Primers were as follows: β-actin: F-[…] (SEQ ID NO: 340), R-[…] (SEQ ID NO: 333); KV4.3: F-[…] (SEQ ID NO: 341), R-[…] (SEQ ID NO: 342); KV7.2 F-[…] AG (SEQ ID NO: 343), R-[…] (SEQ ID NO: 344); OPRM1: F-[…] (SEQ ID NO: 345), R-[…] (SEQ ID NO: 346).",
  "key": {"[1]": {"settings": "various concentrations, 48 h, relative to water control"}, "[2]": {"settings": "whole DRG ex vivo, 3 μM, 48 hours"}, "[3]": {"settings": "whole DRG ex vivo, 10 μM, 48 hours"}},
  "note": "Several values for one entry are separate records, joined by “and”; a condition that tells them apart may be missing. Equal values may be shown once. Where a SMILES comes first, the peptide text is derived from it. [ ]: non-standard residue; d: D form. Gly(Dodecyl) = CCCCCCCCCCCC[C@H](N)C(=O)O",
  "data": [
    {"smiles": "CCCCCCCCCCCC[C@@H]1NC(=O)[C@@H](CCCNC(=N)N)NC(=O)[C@@H](CCCNC(=N)N)NC(=O)[C@@H](Cc2c[nH]c3ccccc23)NC(=O)[C@@H](Cc2c[nH]c3ccccc23)NC(=O)[C@@H](CCCNC(=N)N)NC(=O)[C@@H](CCC(=O)O)NC(=O)[C@@H](CC(=O)O)NC(=O)[C@@H](CC(C)C)NC(=O)[C@@H](CCC(=O)O)NC(=O)[C@H]2CCCN2C(=O)[C@H]2CCCN2C(=O)[C@@H](CCC(=O)O)NC(=O)[C@H]2CCCN2C(=O)[C@H]2CCCN2C(=O)[C@@H](CC(C)C)NC(=O)[C@H]2CCCN2C(=O)[C@@H](CCCCN)NC(=O)[C@@H](CCCNC(=N)N)NC(=O)[C@@H](CCCNC(=N)N)NC(=O)[C@@H](CCCNC(=N)N)NC(=O)[C@@H](CCCNC(=N)N)NC(=O)[C@@H](CCCNC(=N)N)NC1=O", "note": "[SEQ ID NO: 12] (cyclo([dR][dW][dW][dR][dR][Gly(Dodecyl)][dR][dR][dR][dR][dR][dK][dP][dL][dP][dP][dE][dP][dP][dE][dL][dD][dE]))", "values": [
      {"measurement": "Increase, BDNF mRNA", "setting": "0.3 μM, 48 h", "value": 1.4, "unit": "x"},
      {"measurement": "Increase, BDNF mRNA", "setting": "1 μM, 48 h", "value": 1.3, "unit": "x"},
      {"measurement": "Increase, KV4.3 mRNA", "setting": "1 μM, 48 h", "value": 0, "unit": "x"},
      {"measurement": "Increase, KV7.2 mRNA", "setting": "1 μM, 48 h", "value": 0, "unit": "x"},
      {"measurement": "Increase, NGF mRNA", "setting": "1 μM, 48 h", "value": "No affect was observed"},
      {"measurement": "Increase, Nav1.8 mRNA", "setting": "1 μM, 48 h", "value": 0.8, "unit": "x"},
      {"measurement": "Increase, OPRM1 mRNA", "setting": "1 μM, 48 h", "value": 1.2, "unit": "x"},
      {"measurement": "Increase, NGF mRNA", "setting": "1 μM, 48 h, listed as 12", "value": 0.9, "unit": "x"},
      {"measurement": "Increase, BDNF mRNA", "setting": "3 μM, 48 h", "value": 1.3, "unit": "x"},
      {"measurement": "Increase, KV4.3 mRNA", "setting": "3 μM, 48 h", "value": 0, "unit": "x"},
      {"measurement": "Increase, KV7.2 mRNA", "setting": "3 μM, 48 h", "value": 6.7, "unit": "x"},
      {"measurement": "Increase, NGF mRNA", "setting": "3 μM, 48 h", "value": 1.25, "unit": "x"},
      {"measurement": "Increase, Nav1.8 mRNA", "setting": "3 μM, 48 h", "value": 2.6, "unit": "x"},
      {"measurement": "Increase, OPRM1 mRNA", "setting": "3 μM, 48 h", "value": 3, "unit": "x"},
      {"measurement": "Increase, BDNF mRNA", "setting": "10 μM, 48 h", "value": 1.7, "unit": "x"},
      {"measurement": "Increase, KV4.3 mRNA", "setting": "10 μM, 48 h", "value": 1.9, "unit": "x"},
      {"measurement": "Increase, KV7.2 mRNA", "setting": "10 μM, 48 h", "value": 7.5, "unit": "x"},
      {"measurement": "Increase, NGF mRNA", "setting": "10 μM, 48 h", "value": 1.9, "unit": "x"},
      {"measurement": "Increase, Nav1.8 mRNA", "setting": "10 μM, 48 h", "value": 4, "unit": "x"},
      {"measurement": "Increase, OPRM1 mRNA", "setting": "10 μM, 48 h", "value": 3.9, "unit": "x"},
      {"measurement": "mRNA expression of BDNF and NGF (in words)", "setting": "[1]", "value": "increases expression of BDNF and NGF"},
      {"measurement": "mRNA expression of KV4.3, KV7.2, Nav1.8 and OPRM1 (in words)", "setting": "[1]", "value": "increases expression of KV4.3, KV7.2, Nav1.8 and OPRM1"},
      {"measurement": "increase of NGF", "setting": "whole DRG ex vivo, 3 μM", "value": "approximately 50%"},
      {"measurement": "induction of KV4.3 compared to control", "setting": "[2]", "value": "approximately 0 times"},
      {"measurement": "induction of Nav1.8 compared to control", "setting": "[2]", "value": "2.9 times and ~3 times"},
      {"measurement": "increase of BDNF expression", "setting": "whole DRG ex vivo, 10 μM", "value": "~75", "unit": "%"},
      {"measurement": "increase of NGF", "setting": "whole DRG ex vivo, 10 μM", "value": "~2", "unit": "times"},
      {"measurement": "induction of KV7.2 compared to control", "setting": "[3]", "value": "9 times and ~7 times"},
      {"measurement": "induction of Nav1.8 compared to control", "setting": "[3]", "value": "4.8 times and ~5 times"},
      {"measurement": "increase of BDNF expression", "setting": "whole DRG ex vivo, 0.3, 1, and 3 μM", "value": "approximately 25%"}
    ]}
  ]
}
